# From US20230279426A1, “MODIFIED VIRAL COMPOSITIONS FOR VIRAL TRANSDUCTION” (Lycia Therapeutics, Inc., priority 2020, published 2023)
# Experiments:
# [1] = molecular target: T1, recombinant human CI-M6PR protein (Homo sapiens, UniProt P11717); assay: M6PR binding ELISA of matuzumab ligand-linker conjugates; details: conjugates of ligand linkers
# T1 construct: purchased R&D 6418-GR-050
# Experimental: Binding affinity of matuzumab conjugated to ligand-linkers for M6PR w as determined by ELISA using the following protocol: Nunc black solid bottom MaxiSorp plates were allowed to incubate overnight at 4° C. coated with 1 μg/mL of recombinant human CI-M6PR protein (R&D, 6418-GR-050) in 50 μL PBS. The next day, coating was decanted and plates were washed 3× with PBS. Wells were blocked with 350 μL of 3% BSA-PBS for 1 hour at room temperature. Blocking solution was removed and matuzumab conjugates (matuzumab-Compound I-7 (d4), matuzumab-Compound I-7 (d8), matuzumab-Compound I-8 (d4), matuzumab-Compound I-9 (d4), matuzumab-Compound I-11 (d4) and matuzumab-Compound I-12 (d4)) and their respective isotype controls (human IgG (bioxcell, BP0297) conjugated to the ligand-linker compounds being tested) were diluted in 3% BSA-PBS. 50 µL of diluted conjugates were added to the plate and allowed to incubate at room temperature for 2 hours. After incubation, solutions in plate were decanted and washed with […] of 0.05% PBS-Tween20 three times, drying the plate each wash on a clean paper towel. 50 μL of peroxidase AffiniPure Mouse Anti-Human IgG (Jackson Immuno, 209-035-088) diluted in 3% BSA-PBS to 0.2 μg/mL was added to the plate and allowed to incubate for 1 hour at room temperature in the dark. […]
# Jurkat cells = assay: Intracellular uptake of anti-IgG2a conjugates with IgG2a-Alexa488 in Jurkat cells; type: cell-based, human; details: 1 h and 24 h
# Experimental: Anti-IgG2a conjugates were generated by adding anti-IgG2a rIgG1 (Southern Biotech, Cat #1155-ol) to a solution of PBS buffer pH 7.2 containing 10% DMSO (final antibody concentration 5 mg/mL). Linker (e.g., Compound I-7) was added (at a 5-40× linker:antibody molar ratio), and the reaction was incubated at room temperature for 3 hours. Excess linker was removed by size exclusion chromatography (Superdex 200 Increase. Cat i28990944) and final DAR, was determined by LC/MS (Sciex 5600+. Acquity UPLC BEH C4 column. Cat #186004495). The resulting rIgG1 antibody conjugates were used in the experiments below.
# The anti-IgG2a conjugates were bound to IgG2a-Alexa488, as follows: equal molar ratios of anti-IgG2a and IgG2a-Alexa488 were added in tissue culture media for 30 minutes at room temperature. The resulting anti-IgG2a:IgG2a antibody-Alexa488 compositions were added to Jurkat cells (100k cells/50 ul per well, n=2), and Alexa488 fluorescence levels were measured (via Alexa488 measurement) at 1 hour and 24 hours by flow cytometry. Because Alexa488 accumulates in cells, this presents a way to measure total intracellular uptake by cells over time.
# T1 sequence (P11717 41-2491): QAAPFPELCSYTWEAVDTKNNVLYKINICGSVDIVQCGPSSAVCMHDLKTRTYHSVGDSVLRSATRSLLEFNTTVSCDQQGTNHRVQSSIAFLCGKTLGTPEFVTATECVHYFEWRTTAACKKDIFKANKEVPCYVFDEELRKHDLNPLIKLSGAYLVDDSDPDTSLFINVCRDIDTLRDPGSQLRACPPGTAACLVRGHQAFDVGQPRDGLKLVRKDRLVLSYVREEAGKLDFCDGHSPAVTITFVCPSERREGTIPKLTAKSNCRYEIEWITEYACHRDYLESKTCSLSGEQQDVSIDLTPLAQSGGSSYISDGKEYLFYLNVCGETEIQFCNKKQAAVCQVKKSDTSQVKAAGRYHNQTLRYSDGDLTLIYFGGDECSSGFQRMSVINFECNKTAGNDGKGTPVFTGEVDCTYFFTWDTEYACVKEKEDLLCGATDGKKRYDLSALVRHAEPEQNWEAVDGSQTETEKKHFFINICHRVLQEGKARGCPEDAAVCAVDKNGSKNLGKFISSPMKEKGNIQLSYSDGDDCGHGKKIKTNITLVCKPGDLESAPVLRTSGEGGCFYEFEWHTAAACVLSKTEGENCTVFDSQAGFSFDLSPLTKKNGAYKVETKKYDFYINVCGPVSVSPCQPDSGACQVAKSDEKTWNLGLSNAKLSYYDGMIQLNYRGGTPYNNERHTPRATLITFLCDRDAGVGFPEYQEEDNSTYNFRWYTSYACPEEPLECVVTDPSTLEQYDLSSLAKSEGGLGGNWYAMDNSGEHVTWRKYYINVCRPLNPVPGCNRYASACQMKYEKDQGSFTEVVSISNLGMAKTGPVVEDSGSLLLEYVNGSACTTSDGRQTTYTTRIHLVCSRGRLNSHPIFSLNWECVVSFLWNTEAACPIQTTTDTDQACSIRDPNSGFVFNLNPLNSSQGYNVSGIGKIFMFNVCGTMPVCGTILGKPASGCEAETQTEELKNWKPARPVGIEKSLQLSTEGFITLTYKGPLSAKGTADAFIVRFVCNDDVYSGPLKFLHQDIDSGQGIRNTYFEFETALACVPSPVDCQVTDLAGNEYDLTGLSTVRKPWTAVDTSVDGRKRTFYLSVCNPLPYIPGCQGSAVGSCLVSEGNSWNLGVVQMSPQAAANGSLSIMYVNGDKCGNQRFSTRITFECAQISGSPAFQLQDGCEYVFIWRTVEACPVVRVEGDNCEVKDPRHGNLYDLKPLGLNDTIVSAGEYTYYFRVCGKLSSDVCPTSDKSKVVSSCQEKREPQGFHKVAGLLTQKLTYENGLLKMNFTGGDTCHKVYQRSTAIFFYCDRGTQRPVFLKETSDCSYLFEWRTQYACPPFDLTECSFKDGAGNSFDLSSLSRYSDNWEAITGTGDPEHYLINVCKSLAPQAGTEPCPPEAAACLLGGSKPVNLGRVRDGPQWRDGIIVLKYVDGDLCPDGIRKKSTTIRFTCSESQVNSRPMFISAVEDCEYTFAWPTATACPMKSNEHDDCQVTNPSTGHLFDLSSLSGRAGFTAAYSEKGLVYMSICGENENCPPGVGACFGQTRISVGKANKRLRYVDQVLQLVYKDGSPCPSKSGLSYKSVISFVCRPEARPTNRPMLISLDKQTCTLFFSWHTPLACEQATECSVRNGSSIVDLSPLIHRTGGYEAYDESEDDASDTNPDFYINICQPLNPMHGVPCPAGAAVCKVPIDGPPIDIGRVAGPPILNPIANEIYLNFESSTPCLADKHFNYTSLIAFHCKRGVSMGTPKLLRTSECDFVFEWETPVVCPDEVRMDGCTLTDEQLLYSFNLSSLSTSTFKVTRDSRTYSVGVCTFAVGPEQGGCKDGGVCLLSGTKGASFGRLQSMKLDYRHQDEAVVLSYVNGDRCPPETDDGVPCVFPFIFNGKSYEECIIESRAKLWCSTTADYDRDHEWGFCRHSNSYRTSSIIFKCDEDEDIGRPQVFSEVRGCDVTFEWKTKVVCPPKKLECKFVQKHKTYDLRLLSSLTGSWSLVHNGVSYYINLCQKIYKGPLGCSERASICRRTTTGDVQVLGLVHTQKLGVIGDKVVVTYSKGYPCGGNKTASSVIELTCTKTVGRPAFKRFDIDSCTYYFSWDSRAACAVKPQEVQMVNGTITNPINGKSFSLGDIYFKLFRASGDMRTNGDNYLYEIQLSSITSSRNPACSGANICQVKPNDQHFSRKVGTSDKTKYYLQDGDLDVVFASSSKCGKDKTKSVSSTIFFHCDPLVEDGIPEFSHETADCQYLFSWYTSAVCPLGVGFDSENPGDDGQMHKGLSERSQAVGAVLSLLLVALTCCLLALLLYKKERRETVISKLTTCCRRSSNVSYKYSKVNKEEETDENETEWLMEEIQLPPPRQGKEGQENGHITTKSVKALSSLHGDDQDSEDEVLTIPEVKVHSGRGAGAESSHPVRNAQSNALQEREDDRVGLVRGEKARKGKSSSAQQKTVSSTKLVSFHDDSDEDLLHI
SMILES,binding affinity to M6PR relative to Compound I-7 [1],intracellular uptake (Alexa488 fluorescence) (Jurkat cells)
O=C(CCN1C(=O)C=CC1=O)NCCOCCOCCOCCn1cc(CCO[C@H]2O[C@H](CCP(=O)(O)O)[C@@H](O)[C@H](O)[C@@H]2O)nn1 [Compound I-10],weaker binding affinity to M6PR than Compound I-7,sufficiently robust uptake
O=C(CCOCCn1cc(CCO[C@H]2O[C@H](CCP(=O)(O)O)[C@@H](O)[C@H](O)[C@@H]2O)nn1)Oc1c(F)c(F)c(F)c(F)c1F [Compound I-11],weaker binding affinity to M6PR than Compound I-7,sufficiently robust uptake
